A word on the EC50: it is the concentration giving half of the maximal effect.

Drawing on patent US9382254B2, “Compounds and pharmaceutical compositions thereof for the treatment of cystic fibrosis” (Galapagos NV, priority 2013, dated 2016), this text covers EC50 for 8 molecules.

Format in all cases: cell-based
The target of experiment [1] is T1, CFTR ΔF508 mutant (Homo sapiens, UniProt P13569, DEL508-508).
T1 construct: expressed in transfected cells; host or cells: CFBE41o- (adenoviral transduction)
T1 sequence (P13569 with tags, fused parts or gaps DEL508-508): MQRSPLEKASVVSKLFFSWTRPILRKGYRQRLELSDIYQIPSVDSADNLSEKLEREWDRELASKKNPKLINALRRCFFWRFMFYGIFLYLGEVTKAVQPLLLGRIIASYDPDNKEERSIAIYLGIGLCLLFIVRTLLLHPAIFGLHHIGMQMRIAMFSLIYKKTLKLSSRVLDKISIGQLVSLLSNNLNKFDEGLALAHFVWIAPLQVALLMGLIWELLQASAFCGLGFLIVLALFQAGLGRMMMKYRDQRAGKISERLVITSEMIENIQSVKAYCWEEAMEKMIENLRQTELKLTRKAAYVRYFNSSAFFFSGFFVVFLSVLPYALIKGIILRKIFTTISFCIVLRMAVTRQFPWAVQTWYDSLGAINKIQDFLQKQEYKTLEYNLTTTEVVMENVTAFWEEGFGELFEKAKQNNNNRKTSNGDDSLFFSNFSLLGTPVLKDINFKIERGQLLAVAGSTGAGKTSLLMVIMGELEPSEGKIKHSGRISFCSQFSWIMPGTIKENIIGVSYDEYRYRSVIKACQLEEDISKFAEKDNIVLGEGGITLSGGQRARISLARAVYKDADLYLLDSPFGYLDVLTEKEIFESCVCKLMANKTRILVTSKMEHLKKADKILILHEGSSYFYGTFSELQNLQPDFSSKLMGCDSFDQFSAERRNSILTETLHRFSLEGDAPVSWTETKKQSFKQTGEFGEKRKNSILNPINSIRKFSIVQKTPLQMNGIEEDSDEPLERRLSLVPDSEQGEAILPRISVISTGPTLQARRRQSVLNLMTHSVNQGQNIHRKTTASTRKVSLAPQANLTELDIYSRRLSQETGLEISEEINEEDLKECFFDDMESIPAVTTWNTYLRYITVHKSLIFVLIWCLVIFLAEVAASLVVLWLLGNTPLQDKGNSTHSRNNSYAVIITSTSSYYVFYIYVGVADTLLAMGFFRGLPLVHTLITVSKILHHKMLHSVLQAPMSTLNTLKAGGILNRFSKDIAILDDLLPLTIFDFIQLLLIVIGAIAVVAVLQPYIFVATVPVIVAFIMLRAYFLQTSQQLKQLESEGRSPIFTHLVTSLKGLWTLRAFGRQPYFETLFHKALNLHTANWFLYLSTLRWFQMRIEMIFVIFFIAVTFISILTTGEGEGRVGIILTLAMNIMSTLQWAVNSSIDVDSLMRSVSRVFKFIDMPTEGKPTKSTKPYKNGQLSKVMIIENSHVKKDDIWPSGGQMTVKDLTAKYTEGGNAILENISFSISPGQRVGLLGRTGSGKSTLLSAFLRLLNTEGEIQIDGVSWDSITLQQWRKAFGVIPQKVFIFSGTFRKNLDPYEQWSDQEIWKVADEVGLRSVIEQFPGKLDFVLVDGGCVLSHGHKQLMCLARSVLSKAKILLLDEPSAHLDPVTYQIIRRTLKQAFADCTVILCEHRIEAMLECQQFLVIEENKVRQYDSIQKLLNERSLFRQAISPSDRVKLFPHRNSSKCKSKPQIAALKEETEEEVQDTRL
Kind of experiment: YFP-halide influx assay for the CFTR-ΔF508 mutation (384 well, FDSS/μCell). The following applies: CFBE41o- cells, CFTR-ΔF508, 1×D-PBS, fluorescence after 36 seconds. Summed up: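 Potentiator read-out as 1−F/F0, F taken 36 s after iodide addition, EC50 fitted against compound concentration. Cells: CFBE41o- expressing ΔF508 CFTR plus halide-sensitive YFP via adenovirus, rescued by 27 °C for 24 h or 24 h modulator at 37 °C.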

The target in experiment [2] is T2, CFTR G551D mutant (Homo sapiens, UniProt P13569, G551D).
T2 construct: expressed in transfected cells; host or cells: HEK293 (reverse transfection with plasmid)
T2 sequence (P13569 whole entry G551D): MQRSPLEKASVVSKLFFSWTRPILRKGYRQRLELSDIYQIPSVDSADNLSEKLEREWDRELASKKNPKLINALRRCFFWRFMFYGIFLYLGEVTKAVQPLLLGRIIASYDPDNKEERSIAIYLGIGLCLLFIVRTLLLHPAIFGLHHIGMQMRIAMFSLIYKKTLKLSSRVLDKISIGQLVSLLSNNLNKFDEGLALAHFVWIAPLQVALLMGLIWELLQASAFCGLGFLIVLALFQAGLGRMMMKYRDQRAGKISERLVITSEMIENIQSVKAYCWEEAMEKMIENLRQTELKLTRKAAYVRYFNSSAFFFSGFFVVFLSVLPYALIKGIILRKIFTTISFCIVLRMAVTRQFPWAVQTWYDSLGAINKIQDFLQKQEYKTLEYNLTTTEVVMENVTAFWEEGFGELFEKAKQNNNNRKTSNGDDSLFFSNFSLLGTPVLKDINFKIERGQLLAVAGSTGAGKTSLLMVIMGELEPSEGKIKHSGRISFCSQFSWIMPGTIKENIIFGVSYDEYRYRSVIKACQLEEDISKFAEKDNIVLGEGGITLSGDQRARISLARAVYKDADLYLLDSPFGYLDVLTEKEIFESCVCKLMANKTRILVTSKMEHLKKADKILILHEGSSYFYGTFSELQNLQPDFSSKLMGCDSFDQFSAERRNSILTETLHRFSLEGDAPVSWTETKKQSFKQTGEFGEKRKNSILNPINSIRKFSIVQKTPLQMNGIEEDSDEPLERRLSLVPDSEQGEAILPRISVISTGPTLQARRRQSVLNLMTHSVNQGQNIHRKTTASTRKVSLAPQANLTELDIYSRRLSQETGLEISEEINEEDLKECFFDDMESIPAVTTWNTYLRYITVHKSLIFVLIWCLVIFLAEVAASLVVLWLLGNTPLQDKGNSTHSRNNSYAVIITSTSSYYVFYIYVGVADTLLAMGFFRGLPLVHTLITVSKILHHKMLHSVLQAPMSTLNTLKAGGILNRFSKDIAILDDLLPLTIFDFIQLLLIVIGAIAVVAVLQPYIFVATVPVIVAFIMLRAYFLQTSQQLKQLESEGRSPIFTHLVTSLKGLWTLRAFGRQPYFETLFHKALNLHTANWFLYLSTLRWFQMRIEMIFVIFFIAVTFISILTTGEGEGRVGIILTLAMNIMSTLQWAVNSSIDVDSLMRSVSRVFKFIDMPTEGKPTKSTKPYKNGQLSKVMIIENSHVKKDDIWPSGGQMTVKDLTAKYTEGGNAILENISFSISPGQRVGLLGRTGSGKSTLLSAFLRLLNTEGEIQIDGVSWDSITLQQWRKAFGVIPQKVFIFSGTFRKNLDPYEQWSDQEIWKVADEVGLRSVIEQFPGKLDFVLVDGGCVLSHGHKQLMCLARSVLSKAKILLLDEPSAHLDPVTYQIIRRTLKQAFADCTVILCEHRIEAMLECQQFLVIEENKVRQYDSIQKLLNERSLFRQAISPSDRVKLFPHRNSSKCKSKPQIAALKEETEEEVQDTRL
The experiment is described as follows: YFP-halide influx assay for the CFTR-G551D mutation. The following applies: HEK293 cells, forskolin 10.67 μM. The method, boiled down: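 Channel opening potentiation measured as 1−F/F0, where F is YFP fluorescence 7 s after iodide injection and F0 before; EC50 taken from concentration plot. Cells: HEK293 transiently expressing CFTR G551D plus halide-sensitive YFP (H148Q, I152L, F47L), 24 h at 37 °C, 5% CO2.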

Experiment [3] addresses T3, CFTR-G178R (Homo sapiens, UniProt P13569, G178R).
T3 construct: expressed in transfected cells
Kind of experiment: YFP-halide influx assay for the CFTR-G178R. The method, boiled down:
(§1)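 HEK293 cells reverse-transfected with the CFTR mutant plus halide-sensitive YFP (H148Q/I152L/F47L), expressed 24 h at 37 °C. Channel activity measured as I⁻-induced fluorescence quenching over 7 s after injection, expressed as 1-F/F0; EC50 from 1-F/F0 versus compound concentration.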

Experiment [4] concerns the target T4, CFTR-G1349D (Homo sapiens, UniProt P13569, G1349D).
T4 construct: expressed in transfected cells
The experiment is described as follows: YFP-halide influx assay for the CFTR-G1349D. The method, boiled down:
as §1

Experiment [5] addresses T5, CFTR-S549N (Homo sapiens, UniProt P13569, S549N).
T5 construct: expressed in transfected cells
Kind of experiment: YFP-halide influx assay for the CFTR-S549N. The method, boiled down: as §1

Experiment [6] deals with T6, CFTR-R117H (Homo sapiens, UniProt P13569, R117H).
T6 construct: expressed in transfected cells
T6 sequence (P13569 whole entry R117H): as the sequence (P13569 whole entry G551D) above, with R117H, D551G counted along it
The experiment is described as follows: YFP-halide influx assay for the CFTR-R117H. The method, boiled down: as §1

T5 sequence (P13569 whole entry S549N): as the sequence (P13569 whole entry G551D) above, with S549N, D551G counted along it
T4 sequence (P13569 whole entry G1349D): as the sequence (P13569 whole entry G551D) above, with D551G, G1349D counted along it
T3 sequence (P13569 whole entry G178R): as the sequence (P13569 whole entry G551D) above, with G178R, D551G counted along it

With `COc1cc(C#N)cc(S(=O)(=O)c2cc(C(N)=O)c(NC(=O)C(C)(C)O)s2)c1OC(F)F` [Compound 419, 5-[5-cyano-2-(difluoromethoxy)-3-methoxy-phenyl]sulfonyl-2-[(2-hydroxy-2-methyl-propanoyl)amino] thiophene-3-carboxamide], the EC50 in experiment [1] is 26.6 nM; in experiment [2], 678 nM; in experiment [3], 250 nM; in experiment [4], 617 nM; in experiment [5] it was 621 nM; in experiment [6], 465 nM.

On to `COc1ccc(C(F)(F)F)c(S(=O)(=O)c2cc(C(N)=O)c(NC(=O)C(C)(C)O)s2)n1` [Compound 420, 2-[(2-hydroxy-2-methyl-propanoyl)amino]-5-[[6-methoxy-3-(trifluoromethyl)-2-pyridyl]sulfonyl] thiophene-3-carboxamide], for which the EC50 turned out to be 8.05 nM in experiment [1]; 197 nM in experiment [2]; 110 nM in experiment [3]; 95 nM in experiment [4]; 146 nM in experiment [5]; 97.2 nM in experiment [6].

On to `CC(C)c1nn(C)cc1S(=O)(=O)c1cc(C(N)=O)c(NC(=O)C(C)(C)O)s1` [Compound 421, 2-[(2-hydroxy-2-methyl-propanoyl)amino]-5-(3-isopropyl-1-methyl-pyrazol-4-yl)sulfonyl-thiophene-3-carboxamide], for which the EC50 in experiment [1] came to 69 nM; in experiment [2], 5530 nM; in experiment [3], 1590 nM; in experiment [4], 1540 nM; in experiment [5], 1110 nM; in experiment [6], 1930 nM.

As for `CC(C)(O)C(=O)Nc1sc(S(=O)(=O)c2ccc(C(F)(F)F)c(F)c2)cc1C(N)=O` [Compound 422, 5-[3-fluoro-4-(trifluoromethyl)phenyl]sulfonyl-2-[(2-hydroxy-2-methyl-propanoyl)amino] thiophene-3-carboxamide], the EC50 in experiment [1] came to 15.3 nM; in experiment [2], 872 nM; in experiment [3] it was 64.4 nM; in experiment [4], 212 nM; in experiment [5], 542 nM; in experiment [6], 448 nM.

On to `CC(C)(O)C(=O)Nc1sc(S(=O)(=O)c2ccc(C(F)(F)F)c(Cl)n2)cc1C(N)=O` [Compound 423, 5-[[6-chloro-5-(trifluoromethyl)-2-pyridyl]sulfonyl]-2-[(2-hydroxy-2-methyl-propanoyl)amino] thiophene-3-carboxamide], for which the EC50 in experiment [1] turned out to be 10.9 nM; in experiment [2], 842 nM; in experiment [3] it was 162 nM; in experiment [4], 1110 nM; in experiment [5], 1910 nM; in experiment [6] it was 249 nM.

As for `CC(C)(O)C(=O)Nc1sc(S(=O)(=O)c2nc(Cl)ccc2C(F)(F)F)cc1C(N)=O` [Compound 424, 5-[[6-chloro-3-(trifluoromethyl)-2-pyridyl]sulfonyl]-2-[(2-hydroxy-2-methyl-propanoyl)amino] thiophene-3-carboxamide], the EC50 is 3.19 nM in experiment [1]; 403 nM in experiment [2]; 178 nM in experiment [3]; 2430 nM in experiment [4]; 332 nM in experiment [5]; 97.3 nM in experiment [6].

As to `CC(C)(O)C(=O)Nc1sc(S(=O)(=O)c2ccsc2C(F)(F)F)cc1C(N)=O` [Compound 425, 2-[(2-hydroxy-2-methyl-propanoyl)amino]-5-[[2-(trifluoromethyl)-3-thienyl]sulfonyl] thiophene-3-carboxamide], the EC50 came out at 6.9 nM in experiment [1]; 762 nM in experiment [2]; 1270 nM in experiment [3]; 364 nM in experiment [4]; 715 nM in experiment [5]; 144 nM in experiment [6].

In the case of `CC(C)(O)C(=O)Nc1sc(S(=O)(=O)c2nc(C(C)(C)C)ccc2C(F)(F)F)cc1C(N)=O` [Compound 426, 5-[[6-tert-butyl-3-(trifluoromethyl)-2-pyridyl]sulfonyl]-2-[(2-hydroxy-2-methyl-propanoyl)amino] thiophene-3-carboxamide], the EC50 stood at 2.58 nM in experiment [1]; 61.3 nM in experiment [2]; 9.85 nM in experiment [3]; 6.06 nM in experiment [4]; 26.2 nM in experiment [5]; 83.1 nM in experiment [6].
